Entries after “also recorded” stand apart in the source; their conditions may differ.
Key:
[1] = test system: Fao liver cells; assay: ER stress inducers and insulin action in Fao liver cells; assay type: cell-based, rat; conditions: Fao cells, FIG. 12A
Protocol: (A) ER stress was induced in Fao liver cells by a 3-hour treatment with 5 μg/ml tunicamycin (Tun). Cells were subsequently stimulated with insulin (Ins). IRS-1 tyrosine and serine (Ser307) phosphorylation, Akt phosphorylation (Ser473), insulin receptor (IR) tyrosine phosphorylation, and their total protein levels were examined using either immunoprecipitation (IP) followed by immunoblotting (IB) or direct immunoblotting. (B) Quantitation of IRS-1 (tyrosine and Ser307), Akt (Ser473), and IR (tyrosine) phosphorylation under the experimental conditions described in (A) with normalization to protein levels for each molecule. (C) Inhibition of ER stress-induced (300 nM thapsigargin for 4 hours) Ser307 phosphorylation of IRS-1 by JNK-1 inhibitor, SP600125 (JNKi, 25 μM), (D) Quantitation of IRS-1 Ser307 phosphorylation under conditions described in (C). (E) Reversal of ER stress-induced inhibition of insulin-stimulated tyrosine phosphorylation (pY) of IRS-1 by a JNK inhibitor. (F) Quantitation of insulin-induced IRS-1 tyrosine phosphorylation levels described in (E). (G) JNK activity, Ser307 phosphorylation of IRS-1, and total IRS-1 levels at indicated times following tunicamycin treatment (Tun, 10 μg/ml for 1 hour) in IRE-1α^+/+ and IRE-1α^−/− fibroblasts. (H) Insulin-stimulated IRS-1 tyrosine phosphorylation and total IRS-1 levels following tunicamycin treatment (Tun, 10 μg/ml for 1 hour) in IRE-1α^+/+ and IRE-1α^−/− fibroblasts. […] All graphs show mean±SEM from at least 2 independent experiments and statistical significance from the controls is indicated by * with p<0.005.
(A) ER stress was induced in Fao cells by 1 hour treatment with 300 nM thapsigargin (Thap), and cells were subsequently stimulated with insulin (Ins). IRS-1 tyrosine phosphorylation (pY) and serine phosphorylation (pSer307), insulin receptor (IR) tyrosine phosphorylation, and total protein levels were examined using either immunoprecipitation (IP) followed by immunoblotting (IB) or direct immunoblotting. (B) Fao cells were treated with sulindac sulfide (SS: 0, 7.5, 30, and 60 μM) for 45 minutes with or without an additional hour of exposure to 300 nM thapsigargin (Thap). IRS-1 serine phosphorylation and total IRS-1 protein levels were examined as described above.
To investigate whether ER stress interferes with insulin action, we pretreated Fao liver cells with tunicamycin and thapsigargin, agents commonly used to induce ER stress. […] IRS-1 is a substrate for insulin receptor tyrosine kinase and serine phosphorylation of IRS-1, particularly mediated by JNK, reduces insulin receptor signaling (Hirosumi et al., Nature 420:333 (2002); incorporated herein by reference).
Cells: Rat Fao liver cells were cultured with RPMI 1640 (Gibco, Grand Island, N.Y.) containing 10% fetal bovine serum (FBS). […]

[2] = test system: ER stress; assay: ER stress markers in animals, western blot after treatment with the compound; assay type: in vivo; conditions: for activation of JNK / phosphorylation of IRE-1α / phosphorylation of PERK: animals treated with the compound, western blot; for ER stress: overall statement
From the text: (§1) For example, obesity increases the demand on the synthetic machinery of the cell in many secretory organ systems and is also associated with abnormalities in intracellular energy fluxes and nutrient availability. The present invention stems from the recognition that many of these diseases associated with obesity cause ER stress, particularly in peripheral tissues, and that ER stress is involved in triggering insulin resistance and type 2 diabetes, two sequelae of obesity. […] The agents useful in the treatment of these diseases include small molecules, proteins, nucleic acids, and any other chemical compounds known to reduce or prevent ER stress. These agents make act in any manner that reduces or prevents ER stress such as reducing the production of mutant or misfolded proteins, increasing the expression of ER chaperones, increasing the stability of proteins, boosting the processing capacity of the ER, etc. Particularly useful agents include chemical chaperones such as 4-phenyl butyrate (PBA), tauroursodeoxycholic acid (TUDCA), trimethylamine N-oxide (TMAO), glycerol, D2O, dimethylsufloxide, glycine betaine, methyl amines, and glycerophosphocholine. […] The agents may be administered in any manner known in the drug delivery art although preferably the agent is delivered orally or parenterally. Dose ranges for these agents depend on the agent being delivered as well as other factors but will typically be from 10 mg/kg/day to 10 g/kg/day.

[3] = test system: insulin receptor signaling; assay: insulin receptor signaling in animals after treatment; assay type: in vivo; conditions: for serine phosphorylation of Akt / tyrosine phosphorylation of insulin receptor, insulin substrate 1-IRS-1 and IRS-1: animals; for insulin (receptor) signaling: overall statement
From the text: as §1

[4] = test system: ob/ob mice; assay: TUDCA in ob/ob mice: blood glucose, ITT; assay type: in vivo, mouse
Protocol: 9-10 weeks old ob/ob and their age and sex matched lean controls were used to analyze the effects of TUDCA on glucose metabolism and diabetes. After acclimation with PBS injection (once a day, 200 μl i.p. injection) for 4 days, mice were injected intraperitoneally with TUDCA (500 mg/kg once a day in 200 μl of PBS) (n=6 for lean and n=7 for ob/ob) and PBS (200 μl) (n=6 lean and n=7 for ob/ob). Blood glucose levels on the 4th, 7th, and 10th days after first injection (a). ITT on 10 days after the first injection (b).

[5] = test system: ob/ob mice; assay: TMAO in ob/ob mice: fed blood glucose, serum insulin; assay type: in vivo, mouse
Protocol: Experiments were performed using the ob/ob genetic model of obesity and insulin resistance (C57BL/6J-Lep-ob mice purchased from Jackson Laboratory, Bar Harbor, Me.). At seven weeks of age, treatments were started after acclimatization for 5 days by administration of PBS. After this period, TMAO (Sigma, T0514) was dissolved in PBS and administered by intraperitoneal (IP) injection every 24 hours at a dose of 1 g/kg/day. At the indicated days, fed blood glucose levels were measured at 8:00 AM using an automated glucometer system. For insulin measurements, blood samples were collected after 6 hours of fasting and serum insulin levels were determined using a specific ELISA (Crystal Chem, 90060). Each treatment group contained at least six animals per experimental group.

[6] = test system: JNK; assay: JNK activity in liver tissue of obese mice after PBA; assay type: in vivo, mouse; conditions: FIG. 21
[7] = test system: ob/ob mice; assay: 4-PBA in ob/ob mice: blood glucose, insulin tolerance test; assay type: in vivo, mouse; conditions: for blood glucose levels / insulin sensitivity in vivo: ob/ob mice
Protocol: A genetic (ob/ob) model of mouse obesity was used to analyze the effects of 4-phenyl butyrate (4-PBA) on insulin sensitivity and hyperglycemia. 10-12 weeks old, male, leptin deficient mice were obtained from Jackson Labs, acclimated by three times injection of PBS (3 times a day) for 4 days, and treated either with intraperitoneal injection of 4-PBA (1 g/kg/day in three divided doses) or phosphate buffer saline (PBS) (3 doses of 100 μl) for a period of 7 days. Fed blood glucose levels (mg/dl) at the 3rd and 7th days of trial (a). Insulin Tolerance Test (ITT) were performed on the 7th day after the first injection (b).
A genetic (ob/ob) model of mouse obesity was used to analyze the effects to 4-phenyl butyrate (4-PBA) on insulin sensitivity and hyperglycemia. 8-10 weeks old, male, leptin deficient mice were obtained from Jackson Labs, acclimated by PBS injection (2 times a day) for 4 days, and treated either with 4-PBA (500 mg/kg/day in two divided doses) or phosphate buffer saline (PBS) (2 doses of 200 μl) for a period of 20 days. Body weight during the treatment period (a). Blood glucose levels (mg/dl) after 6 hours of fasting at day 0 and day 20 (b). Insulin (ng/ml) levels at day 0 and day 20 (c). Insulin tolerance tests were performed at the 15th day of the treatment (d).
Animal Studies and Obesity Models: Adult (10-12 weeks of age) male ob/ob mice and their wild type (WT) littermates were purchased from Jackson Labs. Mice used in the diet-induced obesity model were male C57BL/6. All mice were placed on high fat diet (HFD: 35.5% fat, 20% protein, 32.7% carbohydrates, Bio-Serve) immediately after weaning (at ˜3 weeks of age). The XBP-1^+/− and XBP-1^+/+ mice were on Balb/C genetic background. Insulin and glucose tolerance tests were performed as previously described (Hirosumi et al., Nature 420:333 (2002); incorporated herein by reference). Insulin and C-peptide ELISA were performed according to manufacturer's instructions using mouse standards (Crystal Chem. Inc., Downers Grove, Ill.). Pancreas isolated from 16-week-old mice was fixed in Bouin's fluid and formalin, and paraffin sections were double-stained with guinea pig anti-insulin and rabbit anti-glucagon antibodies. Texas red dye conjugated donkey anti-guinea pig IgG and FITC conjugated Goat anti-rabbit IgG were used as secondary antibodies.

[8] = test system: ob/ob mice; assay: sodium 4-phenylbutyrate and metformin in ob/ob mice: fed blood glucose; assay type: in vivo, mouse; conditions: oral gavage daily, 200 mg/kg/day (each), fed state
Protocol: Experiments are performed using the ob/ob genetic model of obesity and insulin resistance (C57B6. V-Lepob/OlaHsd mice were purchased from Harlan Teklad, Madison, Wis.). At seven weeks of age, treatments were started after acclimatization for 5 days by administration of PBS. After this period, PBS, sodium 4-phenylbutyrate (200 mg/kg/day), metformin (200 mg/kg/day), and sodium 4-phenylbutyrate plus metformin (200 mg/kg/day each) were administered into four separate experimental groups of mice (with at least six mice in each group) by oral gavage daily. […] Blood glucose levels were measured at the fed state at 8:00 AM.

[9] = FIG. 7, animals with insulin resistance and type 2 diabetes, 1 g/kg/day IP

Row | serine phosphorylation of Akt [3] | tyrosine phosphorylation of insulin receptor, insulin substrate 1-IRS-1 and IRS-1 [3] | insulin (receptor) signaling [3] | Compound | activation of JNK [2] | phosphorylation of IRE-1α [2] | phosphorylation of PERK [2] | ER stress [2] | glucose levels [5, 9] | blood glucose [8] | other results
1 |  |  |  | C/C=C(/C)C(=O)O[C@H]1C(C)=C2[C@H]([C@@H]1OC(=O)CCCCCCC)[C@@](C)(OC(C)=O)C[C@H](OC(=O)CCC)[C@@]1(O)[C@H]2OC(=O)[C@@]1(C)O [thapsigargin] |  |  |  |  |  |  | insulin receptor signaling (as for tunicamycin) [1]: Similar, results were also obtained
2 | increased | increased | regulate insulin receptor signaling | C[C@H](CCC(=O)NCCS(=O)(=O)O)[C@H]1CC[C@H]2[C@@H]3[C@@H](O)C[C@@H]4C[C@H](O)CC[C@]4(C)[C@H]3CC[C@]12C [TUDCA, tauroursodeoxycholic acid] | reduced | reduced | reduced | regulate ER stress in animals; also recorded: reduce ER stress | reduce blood glucose levels |  | diabetes ([4]; 500 mg/kg once a day i.p.): reverses diabetes; blood glucose levels ([4]; FIG. 6, 500 mg/kg once a day i.p.): reduce blood glucose levels; insulin sensitivity ([4]; FIG. 6, 500 mg/kg once a day i.p., 500 mg/kg): increases insulin sensitivity; insulin sensitivity ([5]; FIG. 7): increase insulin sensitivity
3 | increased | increased | regulate insulin receptor signaling | O=C(O)CCCc1ccccc1 [PBA, 4-phenyl butyric acid] | reduced | reduced | reduced | regulate ER stress in animals; also recorded: reduce ER stress |  |  | JNK activity in liver tissue [6]: normalization of JNK activity; blood glucose ([7]; FIGS. 4 and 5): effective in reducing blood glucose; insulin sensitivity ([7]; FIGS. 4 and 5): increasing insulin sensitivity; blood glucose levels ([7]; oral route 500 mg/kg/day in two divided doses, 20 days): lowers blood glucose levels; insulin sensitivity in vivo ([7]; oral route 500 mg/kg/day, ITT at 15th day): increases insulin sensitivity; blood glucose levels ([7]; parenteral (intraperitoneal) 1 g/kg/day in three divided doses, 7 days): lowers blood glucose levels; insulin sensitivity in vivo ([7]; parenteral (intraperitoneal) 1 g/kg/day, ITT on 7th day): increases insulin sensitivity
4 |  |  |  | trimethylamine N-oxide [TMAO] |  |  |  | reduce ER stress | lowering |  | anti-diabetic effect ([5]; FIG. 7, ob/ob mice, 1 g/kg/day IP): act as an anti-diabetic agent in vivo; also recorded: anti-diabetic effect; insulin levels ([5]; animals with insulin resistance and type 2 diabetes, 1 g/kg/day IP): lowering
5 |  |  |  | CN(C)C(=N)N=C(N)N [metformin] |  |  |  |  |  | did not have any effect on blood glucose | 
6 |  |  |  | O=C([O-])CCCc1ccccc1.[Na+] [sodium 4-phenylbutyrate] |  |  |  |  |  | did not have any effect on blood glucose | 

Source: patent publication US20100075894A1, “REDUCING ER STRESS IN THE TREATMENT OF OBESITY AND DIABETES” (HARVARD UNIVERSITY, priority 2004, published 2010)
